Data: patent US9272998B1, “Modulation of c-FOS and BDNF protein expression in pentylenetetrazole-kindled mice following the treatment with novel anti-epileptic compound HHL-6” (priority 2015, dated 2016)

How the values were obtained:
[1] = tested on: scPTZ-induced kindling in mice; assay: PTZ-induced kindling test (Racine's scale seizure score); type: in vivo
Method: (§1) Albino male NMRI mice weighing 20-25 grams were used. The animals were housed under standard laboratory conditions i.e. 12:12 hr light: dark cycle, temperature (21±2° C.) and air humidity controlled environment. Food and water were provided ad libitum. All experiments were carried out in accordance to the International Guidelines for the Use and Care of Laboratory Animals and approved by Scientific Advisory Committee on Animal Care, Use, and Standards of our institute.
Sub-convulsive dose (50 mg/kg) of PTZ was given subcutaneously to all groups (n=12/group) except normal control after every 48 hours. In normal control group, instead of PTZ, saline was used. The drug control groups received daily administration of diazepam (7.5 mg/kg). The test group was treated with the HHL-6 (20 mg/kg) once daily. Racine's scale was used to score the seizure activity such as stage 0: no response; stage 1: ear and facial twitching; stage 2: convulsive wave through the body; stage 3: myoclonic jerks, stage 4: clonic-tonic convulsions, turnover into side position; stage 5: generalized clonic-tonic seizures, loss of postural control. Animals showing score 4 or 5 were considered to be fully kindled.

c-Fos protein expression = assay: c-Fos immunohistochemistry of brain sections of PTZ-kindled mice (ImageJ densitometry); type: in vivo; settings: for Fluorescence intensity of c-Fos, Amygdala / Fluorescence intensity of c-Fos, Thalamus / Fluorescence intensity of c-Fos, Hippocampus / Fluorescence intensity of c-Fos, Cortex: PTZ-kindled mice, HHL-6 20 mg/kg, DZP 7.5 mg/kg, mean ± S.E.M.; for Fluorescence intensity of c-Fos, Amygdala: normal control 12.23 ± 2.9, PTZ control 38.17 ± 5.08; for Fluorescence intensity of c-Fos, Thalamus: normal control 12.58 ± 1.79, PTZ control 45.36 ± 3.70; for Fluorescence intensity of c-Fos, Hippocampus: normal control 15.29 ± 2.3, PTZ control 44.27 ± 7.43; for Fluorescence intensity of c-Fos, Cortex: normal control 16.31 ± 1.24, PTZ control 40.69 ± 8.2; for c-Fos staining intensity (FIG. 4B): cortical region, kindled animals, normal control 16.31±1.24, PTZ control 40.69±8.2
Method: (§2) Animals were sacrificed 24 hrs after establishment of complete kindling. Cardiac perfusion with chilled PBS buffer (NaCl—8 g, KCl—0.2 g, Na2HPO4×12 H2O—2.85 g, KH2PO4—0.2 g; pH 7.4) containing heparin was performed. Whole brains were removed, post-fixed in ice-cold 2% PFA for 24 hrs at +4° C. and then placed in 30% sucrose until brain samples sank to the bottom of the container. The samples were stored at −80° C. until further processing.
Frozen brain samples were cut into […] thick sections and directly taken on poly L-lysine coated slides and kept at −20° C. overnight. The cryosections were incubated overnight at 4° C. with primary antibody i.e. purified c-Fos (4): sc-52 for c-Fos detection and BDNF (N-20): sc-546 for BDNF detection independently. This was followed by re-incubation with secondary antibody i.e. biotinylated goat anti-mouse IgG (Alexa Flour) for 1 hour at room temperature in dark. The stained sections were observed under fluorescent microscope (Nikon ECLIPSE TE2000-S, Japan). Since the specificity of the primary antibody is very critical therefore, in order to determine specificity, negative controls were also processed by eliminating the step where sections were incubated with their respective primary antibody.
Expression of c-Fos and BDNF protein observed under the fluorescent microscope was analyzed by using software ImageJ (NIH, USA). The image processing program ImageJ helps in multiple imaging system data comparisons taking density (densitometry) in consideration to analyze the images. For each image, background density was determined and subtracted; the remaining particles were considered to represent c-Fos or BDNF expression. Data were obtained from two sections per mouse (n=12 animals per group) and presented as means±S.E.M. cFos and BDNF immunoreactivity in the amygdala, cortex, dorsal hippocampus, and thalamus were centered approximately around 3.6 mm posterior to bregma. Within the hippocampus region, measurements were performed over the layer extending from sub-regions CA1-CA3.
(§3) Data is presented as mean±standard error of the mean (S.E.M.). The seizure activity was analyzed by nonparametric Mann-Whitney U tests. The immunostaining data was analyzed by one-way ANOVA with post hoc Dunnett's multiple comparison tests. Sequential differences among means were calculated at the level of P<0.05 using the SPSS version 10.

[2] = tested on: scPTZ-induced seizure in mice; assay: subcutaneous PTZ-induced seizure test (scPTZ); type: in vivo; settings: for mortality in scPTZ test: 20 mg/kg of HHL-6 or 7.5 mg/kg of diazepam, PTZ-control 100% mortality; for protection against scPTZ induced mortality / Onset of jerks / Rearing & falling: diazepam 7.5 mg/kg; for protection against scPTZ induced mortality: mortality within 24 hours; for Onset of jerks / Rearing & falling: i.p. 30 min before s.c. PTZ 90 mg/kg, mean of 6 mice; for Onset of jerks: PTZ-control 190; for Rearing & falling: PTZ-control 640
Method: as §1
The anticonvulsant effect of HHL-6 using scPTZ test was evaluated by administering 20 mg/kg dose to groups of 6 mice at least 30 min before subcutaneous administration of convulsive dose of PTZ (90 mg/kg). After PTZ administration, animals were isolated and observed for an hour for the presence or absence of different types of seizure patterns. Latency to PTZ-induced threshold seizures was also calculated. The latency to threshold seizure is defined as the interval between the time of the PTZ-injection and the occurrence of first episode of threshold seizure. Protection of testing material against PTZ-induced mortality within 24 hours was also evaluated. In all experiments, diazepam (7.5 mg/kg i.p) was used as positive control.
In Table 3, the HHL-6 and diazepam were injected intraperitoneally 30 min before the administration of subcutaneous pentylenetetrazole (90 mg/kg) in their respective groups. Values are presented as mean for the duration of tonic seizure for 6 mice.

BDNF protein expression = assay: BDNF immunohistochemistry of brain sections of PTZ-kindled mice (ImageJ densitometry); type: in vivo; settings: cortical region, kindled animals; normal control 29.53±3.9, PTZ control 57.6±13.6
Method: as §2
Frozen brain samples were cut into […] thick sections and directly taken on poly L-lysine coated slides and kept at −20° C. overnight. The cryosections were incubated overnight at 4° C. with primary antibody i.e. purified c-Fos (4): sc-52 for c-Fos detection and BDNF (N-20): sc-546 for BDNF detection independently. […]
Expression of c-Fos and BDNF protein observed under the fluorescent microscope was analyzed by using software ImageJ (NIH, USA). […] For each image, background density was determined and subtracted; the remaining particles were considered to represent c-Fos or BDNF expression. […]
as §3

[3] = observed 1-2 hr after treatment
Excerpt: Animals were transferred into individual cages the day before the experiments to allow them to acclimatize to the new environment. […] For behavioral studies, blind-testing was employed i.e., the experimenter conducting this study was blinded to the given treatment.

[4] = HHL-6 20 mg/kg; 30 min and 1 h after injection
Method: This was examined by Traction test. The forepaws of a mouse were placed on a small twisted wire rigidly supported above a bench top. Normal mice grasped the wire with forepaws and when allowed to hang free, placed at least one hind foot on the wire within 5 seconds. Inability to put up at least one hind foot constituted failure to the traction. The test was conducted at 30 min and 1 h after the injection of saline, diazepam or HHL-6.

[5] = HHL-6 20 mg/kg, PTZ 90 mg/kg s.c.
[6] = PTZ 90 mg/kg s.c., HHL-6 20 mg/kg

Row | Compound | seizure score (kindling) after treatment day 13 ([1]; HHL-6 20 mg/kg, PTZ 50 mg/kg on alternate days, 18 doses in 36 days) | seizure score (kindling) ([1]; treatment day 9 till 13, HHL-6 20 mg/kg once daily, PTZ 50 mg/kg s.c. every 48 hours, PTZ-kindled control average 4.9) | Fluorescence intensity of c-Fos, Amygdala (c-Fos protein expression) [arbitrary unit] | Fluorescence intensity of c-Fos, Thalamus (c-Fos protein expression) [arbitrary unit] | Fluorescence intensity of c-Fos, Hippocampus (c-Fos protein expression) [arbitrary unit] | Fluorescence intensity of c-Fos, Cortex (c-Fos protein expression) [arbitrary unit] | c-Fos staining intensity (FIG. 4B) (c-Fos protein expression) | protection from jerks [2, 5] | protection from tonic fore limb and hind limb seizures [2, 5] [%] | mortality in scPTZ test ([2]; PTZ 90 mg/kg s.c.) | protection against scPTZ induced mortality [2, 6] [%] | Onset of jerks ([2]; HHL-6 20 mg/kg) [s] | Rearing & falling ([2]; HHL-6 20 mg/kg) [s] | BDNF staining intensity (FIG. 5B) (BDNF protein expression) | alteration in normal behavior pattern [3] | hyper-excitability or sedation [3] | muscle relaxant activity (traction test) [4] | seizure pattern till the end of the kindling protocol ([1]; diazepam 7.5 mg/kg daily, PTZ 50 mg/kg s.c. every 48 hours)
1 | CCCCCC(=O)NCCc1c(C(C)=O)[nH]c2c(OC)cccc12 [HHL-6, 2-acetyl-3-(2-hexanoylamidoethyl)-7-methoxyindole] | 0 | 0.3 | 15.21 ± 2.3 | 15.58 ± 3.74 | 16.92 ± 2.75 | 18.24 ± 3.2 | 18.24±3.2 | unable to provide protection from jerks | 100 | Mortality was not demonstrated | 100 | 460 | 0 | 26.2±5.4 | did not show any alteration in their normal behavior pattern | not observed | did not observed muscle relaxant activity | 
2 | CN1C(=O)CN=C(c2ccccc2)c2cc(Cl)ccc21 [diazepam, reference compound] |  |  | 14.94 ± 1.99 | 18.33 ± 2.19 | 20.09 ± 3.77 | 17.28 ± 3.6 | 17.28±4.6 |  |  | Mortality was not demonstrated | 100 | 0 | 0 | 31.5±7.6 |  |  |  | did not exhibit any seizure pattern
